Key:
[1] = oral administration; cited from earlier work
[2] = intranasally at 1.0 to 1.3 mg/kg in rats; cited from earlier work
[3] = Twelve months storage, THC degradation to Cannabinol by gas chromatography; details: twelve months storage at −10 °C in darkness, 5 ml screw top bottles
Source text: Extract was concentrated by vacuum evaporation and percent of THC degradation quantitated by gas chromatograpy.

## CCCCCc1cc(O)c2c(c1)OC(C)(C)[C@@H]1CCC(C)=C[C@@H]21 [THC, Delta-9-tetrahydrocannabinol]
[1]
  oral dose reaching the circulation unchanged: 10%
[2]
  analgesic response, time post administration: 15 min
  duration of analgesic response: 120 min
[3]
  percent degraded to Cannabinol: 22.6%

— US20180000727A1, “COMPOSITION AND METHODS TO IMPROVE STABILITY, DOSING, PHARMA[…] PRODUCT SHELF LIFE OF ENDOCANNABINOIDS, PHYTOCANNABINOIDS AND […] CA[…] BY NASAL INHAER” (priority 2015, published 2018)
